Measured values as given in US6861432B2, “Piperazine derivatives that destabilize androgen receptors” (Schering Aktiengesellschaft, priority 2001, dated 2005).

The molecules below were run against T1, androgen receptor (Homo sapiens, UniProt P10275, T878A) (assay: cell-based). Settings: LNCaP cells, 10 μM test substance, 48 h; AR/actin as percentage of DMSO control.
T1 construct: 2*10^6 LNCaP cells in 6 ml of RPMI 1640 without phenol red are grown; endogenous in cells; host or cells: LNCaP (human prostate cell line)
T1 sequence (P10275 1-920 T878A): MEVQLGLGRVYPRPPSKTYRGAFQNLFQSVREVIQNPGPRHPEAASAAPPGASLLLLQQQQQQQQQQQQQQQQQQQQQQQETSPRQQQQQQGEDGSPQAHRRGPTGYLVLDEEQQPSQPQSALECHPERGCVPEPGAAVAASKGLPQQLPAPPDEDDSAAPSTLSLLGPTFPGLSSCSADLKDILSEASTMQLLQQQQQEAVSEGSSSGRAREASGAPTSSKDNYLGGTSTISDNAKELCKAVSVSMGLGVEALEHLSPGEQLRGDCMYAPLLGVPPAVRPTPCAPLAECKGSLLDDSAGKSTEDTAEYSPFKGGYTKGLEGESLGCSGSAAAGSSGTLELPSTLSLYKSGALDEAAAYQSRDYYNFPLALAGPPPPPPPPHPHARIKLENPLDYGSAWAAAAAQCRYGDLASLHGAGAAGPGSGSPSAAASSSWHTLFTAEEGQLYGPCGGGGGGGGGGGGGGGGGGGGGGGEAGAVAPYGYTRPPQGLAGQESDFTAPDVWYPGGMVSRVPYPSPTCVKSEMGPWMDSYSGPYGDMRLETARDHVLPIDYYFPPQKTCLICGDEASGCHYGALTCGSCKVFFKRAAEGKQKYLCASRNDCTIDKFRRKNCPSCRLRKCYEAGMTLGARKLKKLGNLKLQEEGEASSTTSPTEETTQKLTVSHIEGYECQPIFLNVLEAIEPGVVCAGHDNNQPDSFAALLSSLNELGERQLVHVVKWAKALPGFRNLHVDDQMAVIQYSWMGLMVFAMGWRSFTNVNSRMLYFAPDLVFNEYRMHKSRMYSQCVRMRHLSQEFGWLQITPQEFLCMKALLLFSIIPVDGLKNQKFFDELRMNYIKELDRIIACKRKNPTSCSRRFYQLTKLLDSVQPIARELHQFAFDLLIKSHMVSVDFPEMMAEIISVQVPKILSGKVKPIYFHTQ

| SMILES | AR Content [%] At 10 μM [%] |
| --- | --- |
| CC1=C(CCCCCCN2CCN(C(=O)Nc3c(Cl)cccc3Cl)CC2)C(=O)N(c2ccc(C#N)c(C(F)(F)F)c2)C1=O [Example 351] | 61 |
| CC1=C(CCCCCCN2CCN(S(=O)(=O)c3ccccc3)CC2)C(=O)N(c2ccc(C#N)c(C(F)(F)F)c2)C1=O [Example 295, 4-[2,5-Dihydro-3-methyl-2,5-dioxo-4-[6-[4-(phenylsulfonyl)piperazin-1-yl]hexyl]-1H-pyrrol-1-yl]-2-(trifluoromethyl)benzonitrite] | 48 |

Same assay, conditions: LNCaP cells, R-1881 at 10 nM; percentage of DMSO control

| SMILES | AR Content [%] |
| --- | --- |
| C[C@]1(O)CC[C@H]2[C@@H]3CCC4=CC(=O)CCC4=C3C=C[C@@]21C [Example R-1881, 17β-hydroxy-17α-methylestra-4,9,11-trien-3-one, reference compound] | 250 |

Same assay, conditions: LNCaP cells, R-1881 at 10 nM; percentage of DMSO control; listed as R1881

| SMILES | AR Content [%] |
| --- | --- |
| C[C@]1(O)CC[C@H]2[C@@H]3CCC4=CC(=O)CCC4=C3C=C[C@@]21C [Example R-1881, 17β-hydroxy-17α-methylestra-4,9,11-trien-3-one, reference compound] | stabilizes the AR protein |

Same assay, conditions: LNCaP, 48 h, read-out: AR Content [%] At 1 μM

| SMILES | remaining activity at 1 µM [%] |
| --- | --- |
| CC(C)C(=O)N1CCN(CCCCCCN2C(=S)N(c3ccc(C#N)c(C(F)(F)F)c3)C(=O)C2(C)C)CC1 [Example 653, 4-[4,4-Dimethyl-3-[6-[4-(2-methyl-1-oxopropyl)piperazin-1-yl]hexyl]-5-oxo-2-thioxoimidazolidin-1-yl]-2-(trifluoromethyl)benzonitrile] | 71 |
| CC1(C)C(=O)N(c2ccc(C#N)c(C(F)(F)F)c2)C(=S)N1CCCCCN1CCN(S(=O)(=O)c2ccc(C#N)cc2)CC1 [Example 632, 4-[3-[5-[4-[(4-Cyanophenyl)sulfonyl]piperazin-1-yl]pentyl]-4,4-dimethyl-5-oxo-2-thioxoimidazolidin-1-yl]-2-(trifluoromethyl)benzonitrile] | 75 |
| CC(CN1C(=S)N(c2ccc(C#N)c(C(F)(F)F)c2)C(=O)C1(C)C)N1CCN(C(=O)c2cccs2)CC1 (stereo not shown) [Example 524, 4-[4,4-Dimethyl-5-oxo-3-[2-[4-[(thien-2-yl)carbonyl]-piperazin-1-yl]propyl]-2-thioxoimidazolidin-1-yl]-2-(trifluoromethyl)benzonitrile] | 61 |
| CC1=C(CCCCCCN2CCN(C(=O)Nc3cc(Cl)nc(Cl)c3)CC2)C(=O)N(c2ccc(C#N)c(C(F)(F)F)c2)C1=O [Example 365, 4-[6-[1-[4-Cyano-3-(trifluoromethyl)phenyl]-2,5-dihydro-4-methyl-2,5-dioxo-1H-pyrrol-3-yl]hexyl]-N-(2,6-dichloropyridin-4-yl)piperazine-1-carboxamide] | 82 |

Same assay, conditions: LNCaP, 48 h, read-out: AR Content [%] At 10 μM

| SMILES | remaining activity at 10 µM [%] |
| --- | --- |
| CC1=C(CCCCCCN2CCN(C(=O)c3ccc(C#N)cc3)CC2)C(=O)N(c2ccc(C#N)c(C(F)(F)F)c2)C1=O [Example 268, 4-[3-[6-[4-(4-Cyanobenzoyl)piperazin-1-yl]hexyl]-2,5-dihydro-4-methyl-2,5-dioxo-1H-pyrrol-1-yl]-2-(trifluoromethyl)benzonitrile] | 73 |
| CC1=C(CCCCCCN2CCN(C(=O)COc3ccc(Cl)cc3)CC2)C(=O)N(c2ccc(C#N)c(C(F)(F)F)c2)C1=O [Example 264, 4-[3-[6-[4-[(4-Chlorophenoxy)acetyl]piperazin-1-yl]hexyl]-2,5-dihydro-4-methyl-2,5-dioxo-1H-pyrrol-1-yl]-2-(trifluoromethyl)benzonitrile] | 37 |
| CC1=C(CCCCCCN2CCN(C(=O)NC(C)C)CC2)C(=O)N(c2ccc(C#N)c(C(F)(F)F)c2)C1=O [Example 319, 4-[6-[1-[4-Cyano-3-(trifluoromethyl)phenyl]-2,5-dihydro-4-methyl-2,5-dioxo-1H-pyrrol-3-yl]hexyl]-N-(1-methylethyl)-piperazine-1-carboxamide] | 74 |
| CC1=C(CCCCN2CCN(C(=O)C3CCC3)CC2)C(=O)N(c2ccc(C#N)c(C(F)(F)F)c2)C1=O [Example 93, 4-[3-[4-[4-(Cyclobutylcarbonyl)piperazin-1-yl]butyl]-2,5-dihydro-4-methyl-2,5-dioxo-1H-pyrrol-1-yl]-2-(trifluoromethyl)benzonitrile] | 53 |
| CC1=C(CCCCCCN2CCN(C(=O)Nc3ccccc3C(F)(F)F)CC2)C(=O)N(c2ccc(C#N)c(C(F)(F)F)c2)C1=O [Example 324, 4-[6-[1-[4-Cyano-3-(trifluoromethyl)phenyl]-2,5-dihydro-4-methyl-2,5-dioxo-1H-pyrrol-3-yl]hexyl]-N-[2-(trifluoromethyl)phenyl]piperazine-1-carboxamide] | 62 |
| CSc1cccc(NC(=O)N2CCN(CCCCCCC3=C(C)C(=O)N(c4ccc(C#N)c(C(F)(F)F)c4)C3=O)CC2)c1 [Example 340, 4-[6-[1-[4-Cyano-3-(trifluoromethyl)phenyl]-2,5-dihydro-4-methyl-2,5-dioxo-1H-pyrrol-3-yl]hexyl]-N-[3-(methylsulfanyl)phenyl]piperazine-1-carboxamide] | 41 |
| CC1=C(CCCCCCN2CCN(C(=O)Nc3ccc(F)cc3)CC2)C(=O)N(c2ccc(C#N)c(C(F)(F)F)c2)C1=O [Example 330, 4-[6-[1-[4-Cyano-3-(trifluoromethyl)phenyl]-2,5-dihydro-4-methyl-2,5-dioxo-1H-pyrrol-3-yl]hexyl]-N-(4-fluorophenyl)-piperazine-1-carboxamide] | 46 |
| CC1=C(CCCCCCN2CCN(C(=O)CC(C)C)CC2)C(=O)N(c2ccc(C#N)c(C(F)(F)F)c2)C1=O [Example 270, 4-[2,5-Dihydro-3-methyl-4-[6-[4-(3-methyl-1-oxobutyl)piperazin-1-yl]hexyl]-2,5-dioxo-1H-pyrrol-1-yl]-2-(trifluoromethyl)benzonitrile] | 65 |
| CC1=C(CCCCN2CCN(C(=O)c3cccs3)CC2)C(=O)N(c2ccc(C#N)c(C(F)(F)F)c2)C1=O [Example 99, 4-[2,5-Dihydro-3-methyl-2,5-dioxo-4-[4-[4-[(thien-2-yl)-carbonyl]piperazin-1-yl]butyl]-1H-pyrrol-1-yl]-2-(trifluoromethyl)benzonitrile] | 66 |
| CC1=C(CCCCCCN2CCN(S(=O)(=O)c3ccc(C#N)cc3)CC2)C(=O)N(c2ccc(C#N)c(C(F)(F)F)c2)C1=O [Example 300, 4-[3-[6-[4-[(4-Cyanophenyl)sulfonyl]piperazin-1-yl]hexyl]-2,5-dihydro-4-methyl-2,5-dioxo-1H-pyrrol-1-yl]-2-(trifluoromethyl)benzonitrile] | 35 |
| CC1=C(CCCCN2CCN(C(=O)c3ccc(N(C)C)cc3)CC2)C(=O)N(c2ccc(C#N)c(C(F)(F)F)c2)C1=O [Example 96, 4-[3-[4-[4-[4-(Dimethylamino)benzoyl]piperazin-1-yl]butyl]-2,5-dihydro-4-methyl-2,5-dioxo-1H-pyrrol-1-yl]-2-(trifluoromethyl)benzonitrile] | 50 |
| CSc1ccc(NC(=O)N2CCN(CCCCCCC3=C(C)C(=O)N(c4ccc(C#N)c(C(F)(F)F)c4)C3=O)CC2)cc1 [Example 342, 4-[6-[1-[4-Cyano-3-(trifluoromethyl)phenyl]-2,5-dihydro-4-methyl-2,5-dioxo-1H-pyrrol-3-yl]hexyl]-N-[4-(methylsulfanyl)phenyl]piperazine-1-carboxamide] | 67 |
| CC1=C(CCCCN2CCN(S(=O)(=O)c3ccc(C#N)cc3)CC2)C(=O)N(c2ccc(C#N)c(C(F)(F)F)c2)C1=O [Example 121, 4-[3-[4-[4-[(4-Cyanophenyl)sulfonyl]piperazin-1-yl]butyl]-2,5-dihydro-4-methyl-2,5-dioxo-1H-pyrrol-1-yl]-2-(trifluoromethyl)benzonitrile] | 53 |
| CC1=C(CCCCCCN2CCN(C(=O)Nc3c(F)cccc3F)CC2)C(=O)N(c2ccc(C#N)c(C(F)(F)F)c2)C1=O [Example 350, 4-[6-[1-[4-Cyano-3-(trifluoromethyl)phenyl]-2,5-dihydro-4-methyl-2,5-dioxo-1H-pyrrol-3-yl]hexyl]-N-(2,6-difluorophenyl)piperazine-1-carboxamide] | 61 |
| CC1=C(CCCCCCN2CCN(S(=O)(=O)c3ccc(C)cc3)CC2)C(=O)N(c2ccc(C#N)c(C(F)(F)F)c2)C1=O [Example 297, 4-[2,5-Dihydro-3-methyl-4-[6-[4-[(4-methylphenyl)sulfonyl]piperazin-1-yl]hexyl]-2,5-dioxo-1H-pyrrol-1-yl]-2-(trifluoromethyl)benzonitrile] | 59 |
| CC1=C(CCCCCCN2CCN(C(=O)Nc3cccc(F)c3)CC2)C(=O)N(c2ccc(C#N)c(C(F)(F)F)c2)C1=O [Example 326, 4-[6-[1-[4-Cyano-3-(trifluoromethyl)phenyl]-2,5-dihydro-4-methyl-2,5-dioxo-1H-pyrrol-3-yl]hexyl]-N-(3-fluorophenyl)-piperazine-1-carboxamide] | 45 |
| CC1=C(CCCCCCN2CCN(C(=O)Nc3cc(Cl)nc(Cl)c3)CC2)C(=O)N(c2ccc(C#N)c(C(F)(F)F)c2)C1=O [Example 365, 4-[6-[1-[4-Cyano-3-(trifluoromethyl)phenyl]-2,5-dihydro-4-methyl-2,5-dioxo-1H-pyrrol-3-yl]hexyl]-N-(2,6-dichloropyridin-4-yl)piperazine-1-carboxamide] | 36 |
